Laboratory results published in US20260272907A1, “Therapeutic Tyrosine Kinase Inhibitors for Multiple Sclerosis” (Principia Biopharma Inc., priority 2022, published 2026).

System: patients with relapsing multiple sclerosis
Experiment: Phase 2b dose-finding study: adverse events (TEAEs, SAEs, AESIs), safety population
Details: for Adverse event: Accidental overdose / Adverse event: Alanine aminotransferase increased / Adverse event: Alopecia / Adverse event: Back pain / Adverse event: Gastroenteritis / Adverse event: Headache / Adverse event: Muscle spasticity / Adverse event: Nasopharyngitis / Adverse event: Oropharyngeal pain / Adverse event: Peripheral edema / Adverse event: Respiratory tract infection / Adverse event: Upper respiratory tract infection: 12 weeks treatment
[1] = BTKi 5 mg (n = 33), Weeks 1 to 12
[2] = BTKi 15 mg (N = 16), Weeks 1 to 4
[3] = BTKi 15 mg (n = 32), Weeks 1 to 12
[4] = BTKi 30 mg (N = 16), Weeks 1 to 4
[5] = BTKi 30 mg (n = 33), Weeks 1 to 12
[6] = BTKi 60 mg (N = 16), Weeks 1 to 4
[7] = BTKi 60 mg (n = 32), Weeks 1 to 12
[8] = BTKi 5 (N = 32), BTK inhibitor treatment period, safety population
[9] = BTKi 15 (N = 32), BTK inhibitor treatment period, safety population
[10] = BTKi 30 (N = 33), BTK inhibitor treatment period, safety population
[11] = BTKi 60 (N = 33), BTK inhibitor treatment period, safety population

C=CC(=O)N1CCC[C@@H](n2c(=O)n(-c3ccc(Oc4ccccc4)cc3)c3c(N)nccc32)C1 [the BTK inhibitor, (R)-1-(1-acryloylpiperidin-3-yl)-4-amino-3-(4-phenoxyphenyl)-1H-imidazo[4,5-c]pyridin-2(3H)-one]
Any treatment-related AE [1]: 5 (15.2) n (%)
Serious AE [1]: 0 n (%)
AE leading to death [2]: 0
AE leading to study discontinuation [2]: 0
Any AE leading to study treatment discontinuation [2]: 0
Any treatment-related AE [2]: 0
Serious AE [2]: 0
Adverse event: Accidental overdose (BTKi 15 mg (n = 32)): 0%
Adverse event: Alanine aminotransferase increased (BTKi 15 mg (n = 32)): 0%
Adverse event: Alopecia (BTKi 15 mg (n = 32)): 1 (3%)
Adverse event: Back pain (BTKi 15 mg (n = 32)): 1 (3%)
Adverse event: Gastroenteritis (BTKi 15 mg (n = 32)): 0%
Adverse event: Headache (BTKi 15 mg (n = 32)): 3 (9%)
Adverse event: Muscle spasticity (BTKi 15 mg (n = 32)): 0%
Adverse event: Nasopharyngitis (BTKi 15 mg (n = 32)): 0%
Adverse event: Oropharyngeal pain (BTKi 15 mg (n = 32)): 0%
Adverse event: Peripheral edema (BTKi 15 mg (n = 32)): 0%
Adverse event: Respiratory tract infection (BTKi 15 mg (n = 32)): 1 (3%)
Adverse event: Upper respiratory tract infection (BTKi 15 mg (n = 32)): 2 (6%)
AE leading to death [3]: 0 n (%)
AE leading to study discontinuation [3]: 0 n (%)
Any AE (4 weeks vs. placebo 12 weeks) [3]: 17 (53.1) n (%)
Any AE leading to study treatment discontinuation [3]: 0 n (%)
Any treatment-related AE [3]: 1 (3.1) n (%)
Serious AE [3]: 0 n (%)
AE leading to death [4]: 0
AE leading to study discontinuation [4]: 0
Any AE leading to study treatment discontinuation [4]: 0
Any treatment-related AE [4]: 0
Serious AE [4]: 0
Adverse event: Accidental overdose (BTKi 30 mg (n = 33)): 0%
Adverse event: Alanine aminotransferase increased (BTKi 30 mg (n = 33)): 1 (3%)
Adverse event: Alopecia (BTKi 30 mg (n = 33)): 0%
Adverse event: Back pain (BTKi 30 mg (n = 33)): 2 (6%)
Adverse event: Gastroenteritis (BTKi 30 mg (n = 33)): 0%
Adverse event: Headache (BTKi 30 mg (n = 33)): 1 (3%)
Adverse event: Muscle spasticity (BTKi 30 mg (n = 33)): 1 (3%)
Adverse event: Nasopharyngitis (BTKi 30 mg (n = 33)): 1 (3%)
Adverse event: Oropharyngeal pain (BTKi 30 mg (n = 33)): 1 (3%)
Adverse event: Peripheral edema (BTKi 30 mg (n = 33)): 0%
Adverse event: Respiratory tract infection (BTKi 30 mg (n = 33)): 1 (3%)
Adverse event: Upper respiratory tract infection (BTKi 30 mg (n = 33)): 1 (3%)
AE leading to death [5]: 0 n (%)
AE leading to study discontinuation [5]: 0 n (%)
Any AE (4 weeks vs. placebo 12 weeks) [5]: 18 (54.5) n (%)
Any AE leading to study treatment discontinuation [5]: 0 n (%)
Any treatment-related AE [5]: 4 (12.1) n (%)
Serious AE [5]: 0 n (%)
AE leading to death [6]: 0
AE leading to study discontinuation [6]: 0
Any AE leading to study treatment discontinuation [6]: 0
Serious AE [6]: 0
Adverse event: Accidental overdose (BTKi 60 mg (n = 32)): 3 (9%)
Adverse event: Alanine aminotransferase increased (BTKi 60 mg (n = 32)): 1 (3%)
Adverse event: Alopecia (BTKi 60 mg (n = 32)): 1 (3%)
Adverse event: Back pain (BTKi 60 mg (n = 32)): 0%
Adverse event: Gastroenteritis (BTKi 60 mg (n = 32)): 2 (6%)
Adverse event: Headache (BTKi 60 mg (n = 32)): 4 (13%)
Adverse event: Muscle spasticity (BTKi 60 mg (n = 32)): 2 (6%)
Adverse event: Nasopharyngitis (BTKi 60 mg (n = 32)): 3 (9%)
Adverse event: Oropharyngeal pain (BTKi 60 mg (n = 32)): 1 (3%)
Adverse event: Peripheral edema (BTKi 60 mg (n = 32)): 2 (6%)
Adverse event: Respiratory tract infection (BTKi 60 mg (n = 32)): 1 (3%)
Adverse event: Upper respiratory tract infection (BTKi 60 mg (n = 32)): 1 (3%)
AE leading to death [7]: 0 n (%)
AE leading to study discontinuation [7]: 0 n (%)
Any AE (4 weeks vs. placebo 12 weeks) [7]: 16 (50.0) n (%)
Any AE leading to study treatment discontinuation [7]: 0 n (%)
Any treatment-related AE [7]: 7 (21.9) n (%)
Serious AE [7]: 1 (3.1) n (%)
Participants with any TEAE [8]: 16 (50.0) n (%)
Participants with any TEAE leading to death [8]: 0 n (%)
Participants with any TEAE leading to study treatment discontinuation [8]: 0 n (%)
Participants with any severe TEAE [8]: 0 n (%)
Participants with any treatment emergent SAE [8]: 0 n (%)
Participants with any treatment-related TEAE [8]: 6 (18.8) n (%)
Participants with study discontinuation due to any TEAE [8]: 0 n (%)
Participants with treatment emergent SAE(s): Any class [8]: 0 n(%)
Participants with treatment emergent SAE(s): Multiple sclerosis relapse [8]: 0 n(%)
Participants with treatment emergent SAE(s): NERVOUS SYSTEM DISORDERS [8]: 0 n(%)
Participants with any TEAE leading to death (BTKi 5 (N = 32), Weeks 1 to 4): 0 n (%)
Participants with any TEAE leading to study treatment discontinuation (BTKi 5 (N = 32), Weeks 1 to 4): 0 n (%)
Participants with any severe TEAE (BTKi 5 (N = 32), Weeks 1 to 4): 0 n (%)
Participants with any treatment emergent SAE (BTKi 5 (N = 32), Weeks 1 to 4): 0 n (%)
Participants with study discontinuation due to any TEAE (BTKi 5 (N = 32), Weeks 1 to 4): 0 n (%)
Participants with any TEAE [9]: 18 (56.3) n (%)
Participants with any TEAE leading to death [9]: 0 n (%)
Participants with any TEAE leading to study treatment discontinuation [9]: 0 n (%)
Participants with any severe TEAE [9]: 0 n (%)
Participants with any treatment emergent SAE [9]: 0 n (%)
Participants with any treatment-related TEAE [9]: 3 (9.4) n (%)
Participants with study discontinuation due to any TEAE [9]: 0 n (%)
Participants with treatment emergent SAE(s): Any class [9]: 0 n(%)
Participants with treatment emergent SAE(s): Multiple sclerosis relapse [9]: 0 n(%)
Participants with treatment emergent SAE(s): NERVOUS SYSTEM DISORDERS [9]: 0 n(%)
Participants with any TEAE leading to death (BTKi 15 (N = 32), Weeks 1 to 4): 0 n (%)
Participants with any TEAE leading to study treatment discontinuation (BTKi 15 (N = 32), Weeks 1 to 4): 0 n (%)
Participants with any severe TEAE (BTKi 15 (N = 32), Weeks 1 to 4): 0 n (%)
Participants with any treatment emergent SAE (BTKi 15 (N = 32), Weeks 1 to 4): 0 n (%)
Participants with study discontinuation due to any TEAE (BTKi 15 (N = 32), Weeks 1 to 4): 0 n (%)
Participants with any TEAE [10]: 17 (51.5) n (%)
Participants with any TEAE leading to death [10]: 0 n (%)
Participants with any TEAE leading to study treatment discontinuation [10]: 0 n (%)
Participants with any severe TEAE [10]: 1 (3.0) n (%)
Participants with any treatment emergent SAE [10]: 1 (3.0) n (%)
Participants with any treatment-related TEAE [10]: 4 (12.1) n (%)
Participants with study discontinuation due to any TEAE [10]: 0 n (%)
Participants with treatment emergent SAE(s): Any class [10]: 1 (3.0) n(%)
Participants with treatment emergent SAE(s): Multiple sclerosis relapse [10]: 1 (3.0) n(%)
Participants with treatment emergent SAE(s): NERVOUS SYSTEM DISORDERS [10]: 1 (3.0) n(%)
Participants with any TEAE leading to death (BTKi 30 (N = 33), Weeks 1 to 4): 0 n (%)
Participants with any TEAE leading to study treatment discontinuation (BTKi 30 (N = 33), Weeks 1 to 4): 0 n (%)
Participants with any severe TEAE (BTKi 30 (N = 33), Weeks 1 to 4): 0 n (%)
Participants with any treatment emergent SAE (BTKi 30 (N = 33), Weeks 1 to 4): 0 n (%)
Participants with study discontinuation due to any TEAE (BTKi 30 (N = 33), Weeks 1 to 4): 0 n (%)
Participants with any TEAE leading to death [11]: 0 n (%)
Participants with any TEAE leading to study treatment discontinuation [11]: 0 n (%)
Participants with any severe TEAE [11]: 0 n (%)
Participants with any treatment emergent SAE [11]: 0 n (%)
Participants with any treatment-related TEAE [11]: 2 (6.1) n (%)
Participants with study discontinuation due to any TEAE [11]: 0 n (%)
Participants with treatment emergent SAE(s): Any class [11]: 0 n(%)
Participants with treatment emergent SAE(s): Multiple sclerosis relapse [11]: 0 n(%)
Participants with treatment emergent SAE(s): NERVOUS SYSTEM DISORDERS [11]: 0 n(%)
Participants with any TEAE leading to death (BTKi 60 (N = 33), Weeks 1 to 4): 0 n (%)
Participants with any TEAE leading to study treatment discontinuation (BTKi 60 (N = 33), Weeks 1 to 4): 0 n (%)
Participants with any severe TEAE (BTKi 60 (N = 33), Weeks 1 to 4): 0 n (%)
Participants with any treatment emergent SAE (BTKi 60 (N = 33), Weeks 1 to 4): 0 n (%)
Participants with study discontinuation due to any TEAE (BTKi 60 (N = 33), Weeks 1 to 4): 0 n (%)
AESIs (alanine aminotransferase increased >3×ULN) reported in the study (all dose groups): two
TEAEs leading to permanent treatment discontinuation (all dose groups): no TEAEs leading to permanent treatment discontinuation
Upper respiratory tract infection (TEAE) (in each treatment group (5, 15, 30, 60 mg), Weeks 1 to 4): 1 case
Deaths (whole study, all dose groups): No deaths
